This is an account of results in patent US10239871B2, “Compounds and methods for regulating integrins” (ADHAERE PHARMACEUTICALS, INC., priority 2012, dated 2019).

Data set [1] concerns RAW 264.7 macrophage cells. Kind of data set: Wound healing assay (macrophage migration). The format is cell-based, murine. To be noted: LPS 100 ng/mL or PMA 100 nM vs unstimulated (DMSO), 48 hours.
Protocol: Murine RAW 264.7 macrophage cells were grown in DMEM 10% FBS medium in T75 flasks to 70% confluence. The cells were detached by trypsin treatment for 10 minutes at 37° C. and evenly reseeded in 24 well plates and allowed to attain >70% confluency. A scratch was introduced horizontally across the well using 200 µL tip applying even force throughout the etching and holding the tip at approximately an 80 degree angle. The wells were subsequently washed and fresh medium containing various treatment groups was introduced. The wound was imaged using 10× objective. The cells were allowed to grow for 48 hours and the wound was reimaged at the same field after 48 hours. The average extent of wound closure was evaluated by measuring the width of the wound. The area healed was analyzed using ImageJ software and is expressed as percentage healing after 48 hours.
For FIG. 4B, RAW 264.7 cells were plated in 24-well tissue culture plates (2×10^6 cells/well) and allowed to adhere in complete media for 12 hours. […] Images of the cells in culture were obtained immediately prior to (0 hours) and after the completion of the experiment (48 hours) using an inverted phase contrast microscope attached to a video camera.
Representative data shown here are from a triplicate well experiment from one of at least two to three independent experiments. **p<0.001, ***p<0.0001.
A further data set concerns Human macrophages. Put plainly: TNF-α release from human macrophages. To be noted: n=14. The format is cell-based.
The subject of the next data set is Cl66 cells. Put plainly: Orthotopic Cl66 mammary adenocarcinoma tumor growth, with or without Taxol. The data set is classed as in vivo. To be noted: BALB/c mice, vs vehicle. As to the method:
The syngeneic murine mammary adenocarcinoma cell line Cl66 (moderately metastatic and is related to the highly metastatic 4T1 cell line) was orthotopically introduced in Balb/c animals, by injecting ˜5×10^5 Cl66 cells under the left mammary fat pad of WT BALB/c mice (approx. 8-10 weeks old). The tumor size was measured using calipers every other day until the end of the experiment (approx. 5 weeks). 7-days post implantation, the tumors in all animals became palpable, with an average size of ˜100 mm3. At that time, animals in each group were treated as described. LA1 was administered daily for the first two weeks and then every other day until the end of the experiment. Animals in Group 1 received Saline injections, as control. […] It can also enhance the efficacy of traditional chemotherapy in various cancers, including breast cancer, to produce a synergistic response to the treatment. It can also reduce the incidence and the size of metastases.

The subject of the next data set is patients. To be noted: cited from earlier work.
Data set [2] concerns MAPK signaling (pERK, pJNK) in K562 WT cells. Put plainly: Western blotting of pERK and pJNK in K562 WT cells. The data set is classed as cell-based, human. To be noted: CD11b/CD18 ligation with fibrinogen, all conditions. As for the experimental part:
K562 WT cells were incubated with LA1, LA2, LA15 (15 μM), or fibrinogen (200 μg) in serum-free medium for 1 hour at 37° C. Cell lysates were resolved on 4-12% NuPAGE Bis-Tris SDS-PAGE gels using MES running buffer and transferred to a polyvinylidene difluoride (PVDF) membrane (ThermoScientific) using established protocols. Membranes were incubated with a 1:1,000 dilution of the anti-phospho-protein antibodies (anti phospho-p44/42 MAPK (pERK1/2) antibody (Thr202/Tyr204, Cell Signaling) or anti-phospho-SAPK/JNK (pJNK) antibody (Thr183/Tyr185, Cell Signaling #81E11)), or with an antibody against either total ERK1/2 (p44/42 MARK (Erk1/2), Cell Signaling #137F5) or total JNK (SAPK/JNK, Cell Signaling #56G8) and developed according to the manufacturer's instructions (ThermoScientific). Proteins were quantified by densitometry using ImageJ software. […]
Second, an effect of integrin ligation, macro clustering and redistribution in the plasma membrane is the triggering of outside-in intracellular signaling in cells via various MAPKs. […] In FIGS. 6A-6B, immunoblot results from two independent experiments were quantified using ImageJ software and ratio of phosphorylated protein to total protein was determined. Histograms showing this quantitation for each set are also shown. […] In FIGS. 6C-6D, immunoblot results from two independent experiments were quantified and are also shown, as in 6A and 6B.
For orientation: Immunoblotting shows a protein as a band on a membrane.

The target of a further data set is CD11b/CD18 (Homo sapiens, UniProt P11215). Put plainly: Immunofluorescence microscopy of CD11b/CD18 clustering on K562 WT cells. The format is cell-based. Details: K562 cells stably transfected with plasmid encoding wild-type integrin CD11b/CD18; expressed in transfected cells. To be noted: presence of fibrinogen 50 μg/mL. As for the experimental part: To visualize changes upon ligand binding, fibrinogen (50 μg/mL) was also added to the cell suspension media in a second set of incubations. The cells were fixed in suspension and incubated with mAb 184, which is specific for CD11b/CD18, followed by Alexa Fluor 488-conjugated goat antibody against mouse Ig (Sigma). Fluorescence images were recorded with a Leica DMI16000 deconvolution microscope using an HCX APO 40×/0.75 DRY objective with a DCF360FX camera and with Leica LAS-AF software. A 3-dimensional representation of CD11b/CD18 fluorescence intensity and the analysis of the number of CD11b/CD18 clusters per cell was performed using ImageJ software as described. Clustering determination was carried out by counting individual fluorescent peaks that were projected from the basal to the apical side of the cell and were at least 50% above the base line levels. The images presented are representative of at least 20 cells analyzed for each condition from at least three independent experiments.
Therefore, to investigate, a combination of confocal microscopy (to study clustering) and western blotting assays (to study intracellular signaling) using K562 WT cells were used. First, CD11b/CD18 cell-surface distribution and macro clustering was studied under various conditions using confocal microscopy. K562 WT cells in suspension were incubated with various agonists, fixed with paraformaldehyde and the surface expressed CD11b/CD18 was fluorescently stained with anti-CD11b/CD18 mAb 1B4. […] The fluorescence images shown are representative of three independent experiments. […] Also shown below each image is a 3D representation of CD11b fluorescence intensity for selected cells, analyzed in ImageJ In FIG. 5B, data shown are mean±SEM from >40 cells per condition and from >3 independent experiments for each condition. ***p<0.0001, ns=not significant.

Regarding `CCCCCCCCCCCCCC(=O)O[C@@H]1[C@@H](C)[C@@]2(O)[C@@H](C=C(CO)C[C@]3(O)C(=O)C(C)=C[C@@H]23)[C@@H]2C(C)(C)[C@]12OC(C)=O` [PMA, phorbol-12-myristate-13-acetate, reference compound], the “migration of macrophages into the wound area upon stimulation” value in data set [1] was “significantly induced the migration of macrophages”.

As to `CCOCc1nc2c(N)nc3ccccc3c2n1CC(C)(C)O` [R848, reference compound], in the data set on Human macrophages, the “TNF-α release, stimulus alone vs macrophages alone” value is “significantly stimulated TNF-α release”. For `CC(=O)O[C@H]1C(=O)[C@@]2(C)[C@H]([C@H](OC(=O)c3ccccc3)[C@]3(O)C[C@H](OC(=O)[C@H](O)[C@@H](NC(=O)c4ccccc4)c4ccccc4)C(C)=C1C3(C)C)[C@]1(OC(C)=O)CO[C@@H]1C[C@@H]2O` [Taxol, reference compound], the “rate of tumor growth, single agent” value with Cl66 cells is “significant reduction in the rate of tumor growth”. Consider `CC(=O)O[C@@]12CO[C@@H]1C[C@H](O)[C@@]1(C)C(=O)[C@H](O)C3=C(C)[C@@H](OC(=O)[C@H](O)[C@@H](NC(=O)OC(C)(C)C)c4ccccc4)C[C@@](O)([C@@H](OC(=O)c4ccccc4)[C@H]21)C3(C)C` [docetaxel], for which, in the data set with patients, the “incidence rate of bradycardia” value is 1.7%.

Consider fibrinogen [reference compound], for which the “phosphorylated ERK (pERK) and phosphorylated JNK (pJNK)” value in data set [2] was “high levels of both pERK and pJNK”. In addition, the “CD11b/CD18 macro clustering on cell surface” value on CD11b/CD18 is on record as “significant CD11b/CD18 macro clustering”.
